Assay results as given in the NIST ThermoML archive (doi:10.1016/j.jct.2013.04.001).

How the values were obtained:
[1] = mn = molality of the nth substance listed, in mol/kg; conditions: 101 kPa, Liquid, m2 = 0; for viscosity: Capillary tube (Ostwald / Ubbelohde) method
[2] = wn = mass fraction of the nth substance listed; conditions: 101 kPa, Liquid; for mass density: Pycnometric method; for viscosity: Capillary tube (Ostwald / Ubbelohde) method
[3] = 101 kPa, Liquid, Capillary tube (Ostwald / Ubbelohde) method

O [water] + N=C(N)NCCC[C@H](N)C(=O)O
[1]
Conditions | viscosity [mPa·s]
298.15 K | 0.8903
303.15 K | 0.7973
308.15 K | 0.719
313.15 K | 0.6526
318.15 K | 0.5972

Conditions | mass density [kg/m3]
[1], 308.15 K, Pycnometric method | 994.07

O=C[C@H](O)[C@@H](O)[C@H](O)CO [D-xylose] + O
[2]
Conditions | mass density, w1 = 0.025 [kg/m3] | mass density, w1 = 0.05 [kg/m3] | viscosity, w1 = 0.025 [mPa·s] | viscosity, w1 = 0.05 [mPa·s]
293.15 K | 1007.24 | 1015.93 | – | –
298.15 K | 1005.63 | 1014.27 | 0.9096 | 0.964
303.15 K | 1004.03 | 1012.62 | 0.8077 | 0.8547
308.15 K | 1002.43 | 1010.96 | 0.7269 | 0.7637
313.15 K | 1000.84 | 1009.31 | 0.6571 | 0.6869
318.15 K | 999.23 | 1007.66 | 0.5992 | 0.6253

O [water]
[3]
Conditions | viscosity [mPa·s]
298.15 K | 0.8903
303.15 K | 0.7973
308.15 K | 0.719
313.15 K | 0.6526
318.15 K | 0.5972

O=C[C@H](O)[C@@H](O)[C@@H](O)CO [L-arabinose] + O
[2]
Conditions | mass density, w1 = 0.025 [kg/m3] | mass density, w1 = 0.05 [kg/m3] | viscosity, w1 = 0.025 [mPa·s] | viscosity, w1 = 0.05 [mPa·s]
293.15 K | 1007.35 | 1016.09 | – | –
298.15 K | 1005.77 | 1014.44 | 0.9141 | 0.9695
303.15 K | 1004.18 | 1012.79 | 0.8116 | 0.8573
308.15 K | 1002.6 | 1011.13 | 0.7304 | 0.7658
313.15 K | 1001.01 | 1009.46 | 0.6591 | 0.689
318.15 K | 999.43 | 1007.8 | 0.6006 | 0.6295
